Data from patent US20250120986A1, “STEROL THERAPY” (UCL BUSINESS LTD, priority 2021, published 2025).

Columns and labels:
H9C2 cardiomyocyte cells = experiment: Sterol concentration in H9C2 cells after MßCD depletion (Amplex Red / BCA); format: cell-based, rat; settings: sterol-MßCD complex, 68 microM sterol, 4 hours
Procedure: Rat embryonic cardiomyocyte H9C2 cells were cultured in high-glucose DMEM (Gibco 41965-039) supplemented with 10% fetal bovine serum (FBS, Gibco 10270-106) and 100 U/ml of penicillin/streptomycin at 37° C. in a humidified atmosphere of 5% CO2. Cells were split every 2-3 days.
Two days prior to experimentation, cells were seeded in 6 well plates (Corning N-3516) 3×10^5 cells/well. Before any treatment. cells were washed twice with prewarmed PBS.
(§1) Cells were incubated in 5 mM solution MßCD in DMEM for 30 minutes. Before treatment cells were washed twice with prewarmed PBS to remove remaining FBS and prevent contamination of exogenous cholesterol.
After MßCD treatment cells were washed twice with prewarmed PBS to remove remaining MßCD solution and then incubated for 4 hours with either (i) complex Cholesterol—MßCD or (ii) Sitosterol—MßCD. These were prepared according to the protocol reported by Klein et al. (Biochemistry 1995; 34:13784). […]
After incubation MßCD-treated, MßCD/Sterol treated, and untreated (control) cells were washed twice with ice-cold PBS and lysed with phosphate buffer (0.1 M potassium phosphate pH 7.4, 50 mM NaCl, 5 mM cholic acid, 0.1% Triton X-100, protease inhibitors) on ice. […] Protein and sterol concentrations were measured by BCA and Cholesterol Amplex Red assays, respectively. […]

H9C2 cell line = experiment: Western blot of ERK2 phosphorylation after adrenaline treatment (adrenergic signalling); format: cell-based, rat; settings: for ERK2 phosphorylation after adrenaline treatment: H9C2 depleted with MßCD, then incubated with sterol
Procedure: as §1
After MßCD treatment cells were washed twice with prewarmed PBS to remove remaining MßCD solution and then incubated for 4 hours with either (i) complex Cholesterol—MßCD or (ii) Sitosterol—MßCD. These were prepared according to the protocol reported by Klein et al. (Biochemistry 1995; 34:13784). Sterol complexes were diluted ×100 in DMEM to produce final concentrations of 68 microM cholesterol, 68 microM sitosterol and 700 microM MßCD.
Control, MßCD or MßCD/sterol-treated cells were incubated for 10 minutes with adrenaline or noradrenaline solution in DMEM (final concentration 10^−7M).
Cells were washed and lysed on plates with RIPA buffer supplemented by protease and phosphatase inhibitors on ice for 30 minutes. Lysates were treated as described above for sterol determination. Protein concentration was determined by BCA assay. Western blot samples were prepared by mixing the lysates with 5× loading buffer (Tris HCl pH 6.8 312.5 mM, SDS 10%, bME 12.5%, glycerol 47.5%, bromophenol blue 0.01%). 2 mcg of protein/sample was separated by electrophoresis on 10% SDS-PAGE and transferred to a PVDF membrane. Membrane was blocked with 5% BSA in TBST for 1 hour at room temperature with gentle agitation and incubated with primary anti-pERK or anti-PFK antibodies overnight at 4° C. Both primary antibodies were diluted 2000 times in 5% BSA in TBST. […]
Chemiluminescent detection was performed using the Clarity TM Western ECL Substrate (Bio-Rad). Band intensity was analysed by Image Studio Lite ver5.2. Results are calculated as a ratio of intensities of pERK2 band to PFK band for each sample and normalized as a percentage from the average of samples treated with adrenaline only.

[1] = test system: sham-operated rats and septic rats; experiment: Catecholamine responsiveness study (dobutamine / noradrenaline challenge) in rat faecal peritonitis model; format: in vivo; settings: 10 minutes after commencement of infusion
Procedure: II. Sepsis was induced in awake, instrumented male Wistar rats (316±23.5 g) as described above but using 7 microL of faecal slurry/g body weight. Rats were allocated into sham-operated (control), sepsis and sepsis+cholesterol groups.
At 6 h post-induction of sepsis, the sepsis+cholesterol group received an i.v. infusion of a cholesterol-loaded formulation, either liposomal- or bovine HDL (10 mg cholesterol/300 g bw), which was continued over 15 hours.
At 21 h, catecholamine responsiveness was tested by consecutively administering, under isoflurane anaesthesia, the beta-adrenergic agonist, dobutamine (10 μg/kg/min for 10 min) and then the predominant alpha-adrenergic agonist, norepinephrine (0.5 μg/kg/min for 10 min) with a 30 min washout period in between.
Blood pressure (measured continuously from an indwelling carotid line), heart rate and stroke volume (measured by echocardiography) were measured before and at 10 minutes after each drug was infused.

H9C2 cardiomyocytes = experiment: ERK1 and ERK2 phosphorylation after dobutamine treatment (adrenergic signalling); format: cell-based, rat; settings: H9C2 treated with MßCD alone
Procedure: Adrenergic signalling was evaluated in the H9C2 cardiomyocytes by the increase of ERK1 and ERK2 phosphorylation after dobutamine treatment.

[2] = septic rats, 21 h post-faecal peritonitis

`CC(C)CCC[C@@H](C)[C@H]1CC[C@H]2[C@@H]3CC=C4C[C@@H](O)CC[C@]4(C)[C@H]3CC[C@]12C` [cholesterol, Cholesterol] was tested, and the “cellular sterol content after MßCD depletion” value (H9C2 cardiomyocyte cells) was “Sterol content was restored” and the “ERK2 phosphorylation after adrenaline treatment” value (H9C2 cell line) was 2 × normal.

`CC(CCc1ccc(O)cc1)NCCc1ccc(O)c(O)c1` (stereo not shown) [dobutamine] was tested, and the “stroke volume response to the agonist” value [1, 2] was “non-responsive” and the “stroke volume response to the agonist” value ([1]; sham animals) was “significant rises”.

With `NC[C@H](O)c1ccc(O)c(O)c1` [noradrenaline] the “blood pressure response to the agonist” value [1, 2] was “non-responsive” and the “blood pressure response to the agonist” value ([1]; sham animals) was “significant rises”.

For `CC[C@H](CC[C@@H](C)[C@H]1CC[C@H]2[C@@H]3CC=C4C[C@@H](O)CC[C@]4(C)[C@H]3CC[C@]12C)C(C)C` [sitosterol, Sitosterol], the “cellular sterol content after MßCD depletion” value (H9C2 cardiomyocyte cells) was “Sterol content was restored” and the “ERK2 phosphorylation after adrenaline treatment” value (H9C2 cell line) was 2 × normal.

For Methyl-β-cyclodextrin [MßCD], the “ERK2 phosphorylation after adrenaline treatment (in words)” value (H9C2 cell line; H9C2, 5 mM MßCD for 30 minutes) was “decreased ERK2 phosphorylation” and the “phosphorylation of ERK1 and ERK2 after dobutamine treatment” value (H9C2 cardiomyocytes) was “decreased phosphorylation of both ERK1 and ERK2”.
